Reference: patent EP3928779A1 (Chugai Seiyaku Kabushiki Kaisha, priority 2014, dated 2016)

Legend:
[1] = system: chronic kidney disease model rat; assay: Suppressive effect on rise in serum parathyroid hormone concentration of chronic kidney disease model rat; assay type: in vivo; settings: suppression of a rise in serum parathyroid hormone concentration
Experimental: (§1) A group given feed non-supplemented with the test compound was used as a reference pathological group, and a group neither subjected to the kidney removal nor antibody administration and given feed non-supplemented with the test compound was used as a normal group. Fourteen weeks after the start of administration of the test compound, blood was collected from the abdominal aorta and serum was collected. As an indicator of renal damage, serum creatinine concentrations were measured by an enzyme assay (creatinase-sarcosine oxidase-POD method). The rate of suppression of a rise in serum creatinine concentration was determined according to the following expression: Rate (%) of suppression of a rise in serum creatinine concentration = (1−[(Serum creatinine concentration of the test compound−treated pathological group)−(Serum ceatinine concentration of the […])]/[(Serum creatinine concentration of the reference pathological group)−(Serum creatinine concentration of the normal group)]) × 100 [formula]
Using serum collected from the same animal as that in test example 7 after 14 weeks from the start of administration of the test compound, concentrations of serum parathyroid hormone were measured by the ELISA method. […]

[2] = system: chronic kidney disease model rat; assay: Suppressive effect on rise in serum creatinine concentration of chronic kidney disease model rat; assay type: in vivo; settings: suppression of a rise in serum creatinine concentration, dosage 0.1% in feed for 14 weeks
Experimental: as §1
As a result, the test compound was confirmed to have a suppressive effect on a rise in serum creatinine concentration, namely, a suppressive effect on renal damage. […]

[3] = system: Adenine-induced renal failure rats; assay: Suppressive effect on rise in serum phosphorus concentration by combined use with sevelamer carbonate (adenine-induced renal failure rat); assay type: in vivo; settings: 14 days
Source text: Adenine was forcedly administered orally to each Wistar male rat (7-8 weeks old) to impair renal functions and thereby prepare a hyperphosphatemia model (Katsumata K, Kusano K, Hirata M, Tsunemi K, Nagano N, Burke SK, Fukushima N. Sevelamer hydrochloride prevents ectopic calcification and renal osteodystrophy in chronic renal failure rats. Kidney Int. 2003 Aug; 64 (2): 441-50). Each test compound was mixed at a ratio of 0.1% of mass concentration with feed. The animal was fed with a given amount of the feed for 3 days. A group given feed non-supplemented with a test compound was used as a reference pathological group, and an adenine-unadministered group given feed non-supplemented with a test compound was used as a normal group. 3 days after the start of administration of the test compound, blood was collected from the jugular vein, and serum was collected. Serum phosphorus concentrations were measured by the Fiske-Subbarow method. The rate of suppression of a rise in serum phosphorus concentration was determined according to the following expression: Rate (%) of suppression of a rise in serum phosphorus concentration = (1−[(Serum phosphorus concentration of the test compound−treated pathological group)−(Serum phosphorus concentration of the normal group)]/[(Serum phosphorus concentration of the reference pathological group)−(Serum phosphorus concentration of the normal group)]) × 100 [formula]
Adenine-induced renal failure rats were prepared in the same manner as in Test Example 5. […] Serum phosphorus concentrations were measured by the Fiske-Subbarow method. The rate of suppression of a rise in serum phosphorus concentration was determined according to the following expression: Rate (%) of suppression of a rise in serum phosphorus concentration = (1−[(Serum phosphorus concentration of the compound−treated pathological group)−(Serum phorphorus concentration of the normal group)]/[(Serum phosphorus concentration of the reference pathological group)−(Serum phosphorous concentration of the normal group)]) × 100 [formula] […]

[4] = system: rat small-intestinal brush border membrane vesicles; assay: Inhibitory effect on 33PO4 uptake into rat small-intestinal brush border membrane vesicles (rapid filtration method); assay type: biochemical; settings: 33PO4 uptake into rat small-intestinal BBMVs; test compound 1 µM; reacted for 60 seconds
Method in brief: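 Uptake of ^33PO4 was measured by rapid filtration and liquid scintillation counting of filter-retained vesicles, after quenching with ice-cold 110 mM NaCl/1 mM KH2PO4/10 mM HEPES pH 7.5. Vesicles were brush border membranes from the upper small intestine of female Wistar rats aged 4–5 weeks.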

[5] = system: chronic kidney disease model rat; assay: Suppressive effect on calcium deposition in blood vessel of chronic kidney disease model rat; assay type: in vivo; settings: suppression of calcium deposition in blood vessel (thoracic aorta)
Experimental: as §1
From the same animal as that in Test Example 7, the thoracic aorta was collected 14 weeks after the start of administration of the test compound, and the dry weight was measured. […]

[6] = dosage 0.1% in feed for 14 weeks
[7] = dosage 0.3% in feed for 14 weeks

Compound: COCCN(C)CCOc1ccc(CN2C(=O)C(C(=O)Nc3ccc(C(F)(F)F)cc3-c3cc(C(F)(F)F)ncn3)=C(O)C3(CCCC3)N2C)c(F)c1F [Example 14, 7-[[2,3-Difluoro-4-[2-[2-methoxyethyl(methyl)amino]ethoxy]phenyl]methyl]-10-hydroxy-6-methyl-8-oxo-N-[4-(trifluoromethyl)-2-[6-(trifluoromethyl)pyrimidin-4-yl]phenyl]-6,7-diazaspiro[4.5]dec-9-ene-9-carboxamide]
- Rate of inhibition (%) [1, 6]: 13%
- Rate of inhibition (%) [1, 7]: 67%
- Rate of inhibition (%) [2]: 17%
- Suppression rate of rise in serum phosphorus concentration (%) ([3]; test compound 0.05% by mass in combination with sevelamer carbonate 0.5% by mass in feed): 104%
- Suppression rate of rise in serum phosphorus concentration (%) ([3]; test compound 0.05% by mass in feed alone (sevelamer carbonate 0%)): 61%
- Suppression rate of rise in serum phosphorus concentration (%) ([3]; test compound 0.1% by mass in feed alone (sevelamer carbonate 0%)): 79%
- Rate of uptake inhibition (%) (1 µM) [4]: 29%
- Rate of inhibition (%) [5, 6]: 100%
- Rate of inhibition (%) [5, 7]: 100%
